From ChEMBL document CHEMBL3885861, “Open TG-GATES”

Species on record: Rattus norvegicus
Assay: Open TG-GATES - Regimen: Single
Format: toxicity, organism-based, Sprague-Dawley
Parameters: regimen Single, gender Male, age 6 weeks
Details: in vivo, po, 0 mg/kg, route gavage, dose level Control; for APTT / Bas / Eos / Fbg / Hb / Ht / Lym / MCH / MCHC / MCV / Mono / Neu / PT / Plat / RBC / Ret / WBC: tissue Blood; for KIDNEY_L / KIDNEY_R / KIDNEY_TOTAL: tissue Kidney; for LIVER: tissue Liver; for A/G / ALP / ALT / AST / BUN / CRE / Ca / Cl / DBIL / GLC / IP / K / LDH / Na / PL / RALB / TBIL / TC / TG / TP / gamma-GTP: tissue Plasma

O=C(N[C@H](CO)[C@H](O)c1ccc([N+](=O)[O-])cc1)C(Cl)Cl [CHLORAMPHENICOL]
TERMINAL_BW (3 h): 223.3 g | APTT (3 h): 17.4 s | Bas (3 h): 0% | Eos (3 h): 1% | Fbg (3 h): 266.4 mg/dL | Hb (3 h): 13.2 g/dL | Ht (3 h): 38.7% | Lym (3 h): 79.8% | MCH (3 h): 21.8 pg | MCHC (3 h): 34.2% | MCV (3 h): 63.8 fL | Mono (3 h): 3.8% | Neu (3 h): 15.2% | PT (3 h): 14.3 s | Plat (3 h): 115.3 x10_4/uL | RBC (3 h): 607 x10_4/ul | Ret (3 h): 8.3% | WBC (3 h): 80.9 x10_2/uL | KIDNEY_L (3 h): 0.9 g | KIDNEY_R (3 h): 0.9 g | KIDNEY_TOTAL (3 h): 1.8 g | LIVER (3 h): 10.1 g | A/G (3 h): 0.9 | ALP (3 h): 1566 IU/L | ALT (3 h): 41.4 IU/L | AST (3 h): 73.8 IU/L | BUN (3 h): 9.4 mg/dL | CRE (3 h): 0.2 mg/dL | Ca (3 h): 11.6 mg/dL | Cl (3 h): 105 meq/L | DBIL (3 h): 0.012 mg/dL | GLC (3 h): 184.2 mg/dL | IP (3 h): 8.6 mg/dL | K (3 h): 4.2 meq/L | LDH (3 h): 57.6 IU/L | Na (3 h): 139.8 meq/L | PL (3 h): 136.2 mg/dL | RALB (3 h): 2.5 g/dL | TBIL (3 h): 0.062 mg/dL | TC (3 h): 74.6 mg/dL | TG (3 h): 66.4 mg/dL | TP (3 h): 5.3 g/dL | gamma-GTP (3 h): 1.2 IU/L | TERMINAL_BW (6 h): 222.3 g | APTT (6 h): 17.1 s | Bas (6 h): 0% | Eos (6 h): 0.8% | Fbg (6 h): 262.8 mg/dL | Hb (6 h): 13.3 g/dL | Ht (6 h): 42.9% | Lym (6 h): 72.2% | MCH (6 h): 21.6 pg | MCHC (6 h): 30.9% | MCV (6 h): 70.1 fL | Mono (6 h): 2.6% | Neu (6 h): 24.2% | PT (6 h): 14.6 s | Plat (6 h): 109 x10_4/uL | RBC (6 h): 613.2 x10_4/ul | Ret (6 h): 8.2% | WBC (6 h): 60.2 x10_2/uL | KIDNEY_L (6 h): 0.9 g | KIDNEY_R (6 h): 0.9 g | KIDNEY_TOTAL (6 h): 1.8 g | LIVER (6 h): 9.4 g | A/G (6 h): 0.9 | ALP (6 h): 1343.8 IU/L | ALT (6 h): 38.8 IU/L | AST (6 h): 71.2 IU/L | BUN (6 h): 8.8 mg/dL | CRE (6 h): 0.2 mg/dL | Ca (6 h): 11.6 mg/dL | Cl (6 h): 105.2 meq/L | DBIL (6 h): 0.014 mg/dL | GLC (6 h): 187.6 mg/dL | IP (6 h): 10.4 mg/dL | K (6 h): 4.2 meq/L | LDH (6 h): 62.8 IU/L | Na (6 h): 141.8 meq/L | PL (6 h): 136.2 mg/dL | RALB (6 h): 2.5 g/dL | TBIL (6 h): 0.064 mg/dL | TC (6 h): 73.6 mg/dL | TG (6 h): 72.2 mg/dL | TP (6 h): 5.5 g/dL | gamma-GTP (6 h): 1.4 IU/L | TERMINAL_BW (9 h): 222.7 g | APTT (9 h): 16.3 s | Bas (9 h): 0% | Eos (9 h): 1% | Fbg (9 h): 256.4 mg/dL | Hb (9 h): 13.5 g/dL | Ht (9 h): 42.9% | Lym (9 h): 71.2% | MCH (9 h): 21.5 pg | MCHC (9 h): 31.5% | MCV (9 h): 68.1 fL | Mono (9 h): 2.6% | Neu (9 h): 25% | PT (9 h): 14.5 s | Plat (9 h): 114.3 x10_4/uL | RBC (9 h): 630.2 x10_4/ul | Ret (9 h): 8.4% | WBC (9 h): 69.8 x10_2/uL | KIDNEY_L (9 h): 0.9 g | KIDNEY_R (9 h): 0.9 g | KIDNEY_TOTAL (9 h): 1.9 g | LIVER (9 h): 8.8 g | A/G (9 h): 0.9 | ALP (9 h): 1165.4 IU/L | ALT (9 h): 36 IU/L | AST (9 h): 67.8 IU/L | BUN (9 h): 8.6 mg/dL | CRE (9 h): 0.2 mg/dL | Ca (9 h): 11.2 mg/dL | Cl (9 h): 105.4 meq/L | DBIL (9 h): 0.012 mg/dL | GLC (9 h): 192.6 mg/dL | IP (9 h): 10.4 mg/dL | K (9 h): 4.1 meq/L | LDH (9 h): 74.4 IU/L | Na (9 h): 140.6 meq/L | PL (9 h): 145.8 mg/dL | RALB (9 h): 2.5 g/dL | TBIL (9 h): 0.068 mg/dL | TC (9 h): 81.4 mg/dL | TG (9 h): 49.6 mg/dL | TP (9 h): 5.4 g/dL | gamma-GTP (9 h): 1 IU/L | TERMINAL_BW (24 h): 230.2 g | APTT (24 h): 16.1 s | Bas (24 h): 0% | Eos (24 h): 1% | Fbg (24 h): 264 mg/dL | Hb (24 h): 13 g/dL | Ht (24 h): 40.9% | Lym (24 h): 80.6% | MCH (24 h): 21.3 pg | MCHC (24 h): 31.9% | MCV (24 h): 66.6 fL | Mono (24 h): 2.8% | Neu (24 h): 15.2% | PT (24 h): 14.3 s | Plat (24 h): 120.8 x10_4/uL | RBC (24 h): 614.4 x10_4/ul | Ret (24 h): 7.6% | WBC (24 h): 87.8 x10_2/uL | KIDNEY_L (24 h): 1 g | KIDNEY_R (24 h): 1 g | KIDNEY_TOTAL (24 h): 2 g | LIVER (24 h): 11.2 g | A/G (24 h): 0.9 | ALP (24 h): 1650.8 IU/L | ALT (24 h): 48.2 IU/L | AST (24 h): 77 IU/L | BUN (24 h): 15.4 mg/dL | CRE (24 h): 0.2 mg/dL | Ca (24 h): 11.7 mg/dL | Cl (24 h): 103.6 meq/L | DBIL (24 h): 0.012 mg/dL | GLC (24 h): 191.6 mg/dL | IP (24 h): 8.8 mg/dL | K (24 h): 4.1 meq/L | LDH (24 h): 88.8 IU/L | Na (24 h): 141.2 meq/L | PL (24 h): 155.2 mg/dL | RALB (24 h): 2.6 g/dL | TBIL (24 h): 0.056 mg/dL | TC (24 h): 86.8 mg/dL | TG (24 h): 72.6 mg/dL | TP (24 h): 5.6 g/dL | gamma-GTP (24 h): 1.2 IU/L
